For experiment [1], the target named is T1, 3-oxo-5-alpha-steroid 4-dehydrogenase 1 (Homo sapiens, UniProt P18405).
T1 sequence (P18405 whole entry): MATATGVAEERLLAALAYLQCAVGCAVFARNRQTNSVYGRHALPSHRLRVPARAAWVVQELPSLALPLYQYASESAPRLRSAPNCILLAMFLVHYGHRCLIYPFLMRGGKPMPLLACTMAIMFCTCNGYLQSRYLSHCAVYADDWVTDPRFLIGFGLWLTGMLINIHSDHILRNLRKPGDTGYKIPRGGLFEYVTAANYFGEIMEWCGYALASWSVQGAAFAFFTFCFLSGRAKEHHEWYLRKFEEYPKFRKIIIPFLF
The experiment is described as follows: In vitro inhibition of recombinant human Steroid 5-alpha-reductase type I. As to conditions: read-out: Ki app; call rule not given here.

In experiment [2] the target is T2, 3-oxo-5-alpha-steroid 4-dehydrogenase 2 (Homo sapiens, UniProt P31213).
T2 sequence (P31213 whole entry): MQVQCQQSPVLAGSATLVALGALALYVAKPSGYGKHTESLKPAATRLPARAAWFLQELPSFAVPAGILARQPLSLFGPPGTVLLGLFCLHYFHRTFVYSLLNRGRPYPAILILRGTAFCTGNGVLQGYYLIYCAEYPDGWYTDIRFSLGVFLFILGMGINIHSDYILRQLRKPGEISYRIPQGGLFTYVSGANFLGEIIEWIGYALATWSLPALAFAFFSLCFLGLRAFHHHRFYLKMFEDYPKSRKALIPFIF
Briefly: In vitro inhibition of recombinant human Steroid 5-alpha-reductase type 2. As to conditions: read-out: Ki app.

In experiment [3] the target is T2, 3-oxo-5-alpha-steroid 4-dehydrogenase 2. Briefly: In vitro inhibition of recombinant human Steroid 5-alpha-reductase type 2; No inhibition.

As to `CN1C(=O)CCC2=C1CCc1cc(Cl)ccc12`, the Ki in experiment [1] came out at 17 nM; in experiment [2], 455 nM.

With `CN1C(=O)CC[C@@]2(C)C1=CCc1cc(Cl)ccc12` (racemic), in experiment [1], the Ki was determined as 180 nM. The Ki app result in experiment [3] is given as “Not Active”.

As for `CN1C(=O)CC[C@]2(C)c3ccc(Cl)cc3CC[C@@H]12` (stereo in doubt; (+)), the Ki was 9 nM in experiment [1] and above 1000 nM in experiment [2].

Take `CN1C(=O)CC[C@@H]2c3ccc(Cl)cc3CC[C@H]21` (stereo in doubt; (+)) [BEXLOSTERIDE]: the Ki in experiment [1] was found to be 6 nM; in experiment [2] it was 1000 nM.

Turning to `CN1C(=O)CC[C@@H]2c3ccc(Cl)cc3CC[C@@H]21` (stereo in doubt; (+)-3), the results for the Ki in experiment [1] and in experiment [2] were 15 nM and 1000 nM, respectively.

For `CN1C(=O)CC[C@]2(C)c3ccc(Cl)cc3CC[C@H]12` (stereo in doubt; (+)-4), the Ki in experiment [1] is 4000 nM; in experiment [2], above 2500 nM.

As to `CN1C(=O)CC[C@]2(C)c3ccc(Cl)cc3CC[C@@H]12` (stereo in doubt; (-)), the Ki in experiment [1] is 10 nM; in experiment [2], above 1000 nM.

For `CN1C(=O)CC[C@@H]2c3ccc(Cl)cc3CC[C@H]21` (stereo in doubt; (-)) [BEXLOSTERIDE], the Ki in experiment [1] is 4 nM; in experiment [2], 1200 nM.

Consider `CN1C(=O)CC[C@@H]2c3ccc(Cl)cc3CC[C@@H]21` (stereo in doubt; (-)-3), for which the values for the Ki in experiment [1] and in experiment [2] were 15 nM and 5400 nM, respectively.

With `CN1C(=O)CC[C@]2(C)c3ccc(Cl)cc3CC[C@H]12` (stereo in doubt; (-)-4), the Ki in experiment [1] was 7000 nM; in experiment [2], above 2500 nM.

Source of the values: ChEMBL document CHEMBL1127900, “Preparative chiral HPLC separation of all possible stereoisomers of LY191704 and LY266111 and their in vitro inhibition of human types 1 and 2 steroid 5-reductases” (Bioorg Med Chem Lett, 1994).
